# Laboratory results as given in patent publication US12642780B2, “Methods and compositions to treat and prevent viral infections and acute respiratory distress syndrome” (priority 2020, dated 2026).
# Read-outs that look alike come from different tables or passages of the source.
# Experiments:
# BMDM [1] = test: Cytokine secretion by LPS-stimulated BMDM (ELISA); type: cell-based, mouse; details: LPS-stimulated BMDM, metformin 0.5 mM 16 hrs
# Text: (§1) Paired antibodies (capture and detection) and standard recombinant mouse IL-1β (R&D Systems), and TNF and IL-6 (eBioscience) were used to determine mouse cytokine concentrations according to manufacturer's instructions.
# Il6 and Il1b promoters = test: ChIP-qPCR of transcription factor recruitment to Il6 and Il1b promoters in BMDM; type: cell-based, mouse; details: LPS
# Method: Cells were fixed using 0.75% formaldehyde for 10 min followed by 0.125 M glycine to stop the crosslinking reaction. […] Nuclei were pelleted at 1,000 g in a cold microfuge and resuspended in B buffer (50 mM Tris, pH 8.0, 5 mM EDTA and 1% SDS plus inhibitors). […] Nuclear extracts were immunoprecipitated with respective antibodies. The co-immunoprecipitated material was then subjected to qPCR analysis using specific primers.
# NLRP3 inflammasome = NLRP3 inflammasome activation in LPS-primed BMDM; type: cell-based, mouse
# [2] = test system: alum induced peritonitis model; test: Alum-induced peritonitis; type: in vivo, mouse
# BMDM [3] = test: Mitochondrial function in BMDM (TMRM, MitoSOX, cellular ATP); type: cell-based, mouse
# mtDNA = mtDNA synthesis and cytosolic Ox-mtDNA in BMDM; type: cell-based, mouse
# Method: To image mtDNA synthesis, BMDM were stimulated with LPS ([…]) for 4 hrs in the presence of 10 μM EdU. Cells were then washed twice with sterile PBS and fixed in 4% PFA for 15 min followed by permeabilization with 0.02% Triton X-100 for 10 min. EdU staining was performed using a Click-iT EdU Microplate Assay Kit (Thermo Fisher Scientific). In brief, BMDMs were postfixed in EdU fixative for 5 min, and equal volumes of the EdU reaction cocktail, which was prepared immediately before use, were added to each chamber and left overnight. Primary antibody against the mitochondrial marker Atp5b was included in the EdU reaction cocktail. The next day, the BMDM were washed three times with PBS followed by incubation with secondary Alexa antibodies from Life Technologies or Jackson Immuno Research Laboratories. DAPI was used for nuclear counterstaining.
# Total DNA was isolated using Allprep DNA/RNA Mini Kit (catalogue 80204, Qiagen) according to manufacturer's instructions. mtDNA was quantified by qPCR using primers specific for the mitochondrial D-loop region, cytochrome c oxidase (COX) or a specific region of mtDNA that is not inserted into nuclear DNA (non-NUMT) (Zhong et al., 2018). Nuclear DNA encoding Teri, 18S ribosomal RNA and B2m was used for normalization.
# Cellular fractionation was performed using Mitochondrial Isolation kit (89874, ThermoScientific) according to manufacturer's instructions. Cytosolic mtDNA was analyzed as described (Nakahira et al., 2011). For the measurement of Ox-mtDNA, mtDNA was first purified using Allprep DNA/RNA mini kit (Qiagen) from the cytosolic fraction of BMDM as described above. The 8-OH-dG content of the mtDNA was then quantified using an 8-OHdG quantification kit (ab201734), per manufacturer's instructions.
# LPS-induced ARDS = details: for protection from LPS-induced ARDS: last dose 30 min prior to 5 mg/kg LPS
# Method: Briefly, 5 mg/kg LPS or vehicle was i.p. injected and the mice were euthanized 8, 24 or 48 hrs later. […] In all cases, at the experimental endpoint the lungs were inflated with cold PBS, excised and fixed in 10% formalin for histological evaluation.
# as §1
# Lungs were fixed in 10% formalin for 24 hrs and embedded in paraffin, sectioned and stained with hematoxylin and eosin (H&E) to evaluate gross morphology and lung damage and inflammation; and with Sirius red to determine collagen buildup. Ten to twelve H&E stained sections from each animal were scored for the degree of lung inflammation and damage by two blinded mouse lung pathology experts as described (Jupelli et al., 2013), and the scores were averaged. Briefly, the degree of lung inflammation was assigned an arbitrary score of 0 (normal=no inflammation, no airway thickening, no edema), 1 (minimal cellular infiltration, and minimal edema), 2 (mild-moderate cellular infiltration, plus mild airway thickening and mild edema), 3 (severe cellular infiltration, plus diffuse airway thickening and severe edema) in 10-12 fields per mouse.
# Lung sections were subjected to incubation with antibodies specific for F4/80 (macrophage marker), myeloperoxidase (MPO, neutrophil marker), c/EBPb, NFATc2 and NFATc3. Stained areas were quantified using ImageJ software.
# NLRP3 inflammasome activation in the lung was detected by immunofluorescence co-staining with F4/80 and ASC antibodies. Briefly, lung sections were hydrated and boiled at 96° C. in citrate buffer 1× for 20 min. Sections were blocked with 2% BSA/PBS1X containing 1% normal horse serum for 1 hr at room temperature. F4/80 and ASC antibodies were incubated in blocking solution overnight at 4° C. After washing, Alexa secondary antibodies were added and the sections were incubated in 2% BSA/PBS1X for 1 hr at room temperature. Sections were washed, incubated with DAPI, and mounted using FluoSave. Sections were imaged through a Leica SP5 confocal microscope. The percentage of F4/80^+ cells with ASC specks were quantified in 18-26 high magnification fields from 4-5 mice per group.
# [4] = test system: SARS-CoV-2 USA-WA1/2020 strain; test: SARS-CoV-2 infection in hACE2 mice; type: in vivo, mouse
# BMDM [5] = details: for recruitment of DRP1 to mitochondria / recruitment of p62 to mitochondria: metformin 0.5 mM
# in vivo = details: male, C57BL/6, mouse, ip, 50 mg/kg
# Method: Pooled mice plasma (CD-1 (ICR) MSE00PLK2, BioIVT) was selected as blank matrix for standards and quality control samples. Sample preparation procedure was adopted from literatures with minor modifications. […] The samples mix were vortexed for 2 minutes then sonicated for 1 min and centrifuged at 6100 g for 10 min. Supernatants were transferred into a new set 96-well plate, and 10 μL were injected for LC-MS/MS analysis. […] The solution was then serially diluted with 50% methanol-water to obtain standard working solutions over a concentration range of 10-2000 ng/ml. The quality control (QC) samples were prepared in three concentrations: 10, 100, and 500 ng/ml.
# LC-MS/MS system was performed using an Agilent 1290 Infinity HPLC and HiP ALS (Autosampler) coupled with AB Sciex 6500 Q-Trap mass spectrometer. All data were acquired using Analyst (AB SCIEX v1.7.1). […] The mobile phase A was 20 mM ammonium acetate buffer in water and 100% acetonitrile as mobile phase B. A total 7 min gradient run with a flow rate of 0.8 ml/min was implemented. […] The mass spectrometer was operated in a positive mode using scheduled multiple reaction morning (sMRM).
# [6] = BMDM, metformin 0.5 mM 16 h, LPS 4 h
# [7] = LPS-primed BMDM, metformin 0.5 mM 16 h
# [8] = BMDM, LPS 4 hrs, metformin 0.5 mM 16 hrs
# [9] = Cmpk2ΔMye mice, 50 mg/kg metformin
# [10] = therapeutic, 50 mg/kg i.p. after LPS
smiles,measurement,setting,value
"CN(C)C(=N)NC(=N)N [metformin, N,N-dimethylbiguanide]",IL-6 secretion,BMDM [1],inhibited
same,TNF release,BMDM [1],unaffected
same,c/EBPβ and NFATc1-4 recruitment to the Il6 promoter,Il6 and Il1b promoters,inhibited
same,nigericin- and ATP-induced ASC speck formation,"NLRP3 inflammasome; BMDM, metformin 0.5 mM 16 h",inhibited
same,"expression of inflammasome components NLRP3, ASC, pro-Casp1 and NEK7",NLRP3 inflammasome; [6],no effect
same,pro-IL 1β protein,NLRP3 inflammasome; [6],modestly decreased
same,inhibition of nigericin-induced ASC specks,"NLRP3 inflammasome; BMDM, nigericin",incomplete
same,effect of AMPKα1 ablation on inhibition of Casp1 activation or IL-1β processing and secretion by metformin,NLRP3 inflammasome; LPS-primed Ampkα1−/− BMDM stimulated with ATP,no effect
same,LDH release,"NLRP3 inflammasome; LPS-primed BMDM with NLRP3 agonists, metformin 0.5 mM 16 hrs",reduced
same,gasdermin D (GSDMD) cleavage,NLRP3 inflammasome; [7],inhibited
same,Casp1 activation and pro-IL-1β processing to mature IL-1β,"NLRP3 inflammasome; LPS-primed macrophages with ATP, nigericin, alum or MSU, metformin 0.5 mM 16 h",inhibited
same,IL-1β and Casp1 p20 release,"NLRP3 inflammasome; Ndufs4-deficient BMDM, LPS + ATP, metformin 0.5 mM 16 hrs",did not further reduce
same,effect on Casp1 activation and pro-IL-1β processing,NLRP3 inflammasome; nigericin-challenged macrophages,relatively modest
same,Casp1 activation and IL-1β secretion,"NLRP3 inflammasome; p62- and ATG7-deficient macrophages, LPS + ATP",still inhibited
same,peritoneal IL-1β and IL-6 production,"[2]; metformin 0, 10, 50 mg/kg 30 min prior to i.p. alum",dose-dependent decline
same,peritoneal TNF production,[2]; metformin 10 or 50 mg/kg 30 min prior to i.p. alum,no effect
same,ATP or nigericin induced decrease of mitochondrial membrane potential and increase of mtROS,BMDM [3]; [7],blunted both responses
same,drop in ATP concentration,BMDM [3]; LPS-primed versus non-stimulated macrophages,larger drop
same,mitochondrial membrane potential,"BMDM [3]; non-stimulated macrophages, metformin alone",decreased
same,inhibition of LPS-induced mtDNA synthesis by EdU-labelling,mtDNA; [8],confirmed
same,LPS-stimulated mtDNA synthesis,mtDNA; [7],strongly inhibited
same,generation of cytoplasmic Ox-mtDNA,"mtDNA; LPS-primed macrophages challenged with ATP or nigericin, metformin",blocked generation
same,effect of AMPKα1 silencing on LPS-stimulated mtDNA synthesis and its inhibition by metformin,mtDNA; shPrkaa1 BMDM,no effect
same,protection from LPS-induced ARDS,LPS-induced ARDS; 10 mg/kg i.p. three consecutive days,modest protective effect
same,protection from LPS-induced ARDS,LPS-induced ARDS; 50 mg/kg i.p. three consecutive days,strong protection
same,IL-1β and IL-6 in BALF,LPS-induced ARDS; 50 mg/kg prophylactic,decreased
same,TNF in BALF,LPS-induced ARDS; 50 mg/kg prophylactic,no effect
same,collagen buildup,LPS-induced ARDS; 50 mg/kg prophylactic,abrogated
same,"infiltration of inflammatory cells into bronchioles, vascular bed and lung parenchyma",LPS-induced ARDS; 50 mg/kg prophylactic,inhibited
same,macrophage and neutrophil infiltration,"LPS-induced ARDS; 50 mg/kg prophylactic, F4/80 and MPO staining",strongly inhibited
same,septa thickening,"LPS-induced ARDS; 50 mg/kg prophylactic, lung histology",prevented
same,c/EBPβ activation and IL-6 secretion to BALF,LPS-induced ARDS; [9],did inhibit
same,lung pathology or IL-1β secretion,LPS-induced ARDS; [9],did not result in noticeable improvement
same,preventive efficacy of oral metformin,LPS-induced ARDS; drinking water 400 mg/kg starting 48 hrs prior to LPS,as protective as injected metformin
same,ASC speck formation in lung,LPS-induced ARDS; prophylactic metformin,limited
same,c/EBPβ and NFAT activation in lung,LPS-induced ARDS; prophylactic metformin,limited
same,IL-1β in BALF,LPS-induced ARDS; [10],decreased
same,macrophage and neutrophil infiltration,LPS-induced ARDS; [10],inhibited
same,infection-associated loss of body weight,[4]; day 2 post-inoculation,slowed down
same,"immune cell infiltration, alveolar wall thickening and c/EBPβ activation","[4]; hACE2 Tg mice, 50 mg/kg i.p. from 2 days before infection, 6 days post-infection",reduced
same,macrophages with ASC specks in lungs,"[4]; hACE2 Tg mice, 50 mg/kg, day 6 post-infection",almost none
same,expression of CMPK2,BMDM [5]; [8],no effect
same,POLγ expression,"BMDM [5]; BMDM, metformin",no effect
same,AMPK phosphorylation,"BMDM [5]; BMDM, metformin 0.5 mM 16 h",increased
same,p38 or JNK MAP kinase activation,"BMDM [5]; BMDM, metformin 0.5 mM 16 hrs, LPS 30 min",blunted
same,nuclear translocation of NFAT family members and c/EBPb,"BMDM [5]; BMDM, metformin 0.5 mM 16 hrs, LPS 4 hrs",decreased
same,LPS-induced p65/RelA nuclear translocation or phosphorylation,"BMDM [5]; BMDM, metformin 0.5 mM overnight, LPS",did not interfere
same,STAT1 or STAT3 phosphorylation,"BMDM [5]; BMDM, metformin pretreatment, LPS",did not inhibit
same,recruitment of DRP1 to mitochondria,BMDM [5]; LPS primed cells,enhancing it
same,recruitment of DRP1 to mitochondria,BMDM [5]; LPS+ATP challenged macrophages,not affecting it
same,recruitment of p62 to mitochondria,BMDM [5]; LPS-primed cells not ATP exposed,enhanced
same,recruitment of p62 to mitochondria,BMDM [5]; after LPS+ATP stimulation,did not affect
same,concentration at 1 hr,in vivo,440 ± 389 ng/mL
